Inconclusive results and toxic doses are left out. No stated cut-off is given here; in the data, active means T/C of 150% or more; inactive means T/C below 125%. Peptide text beside a SMILES is read from it. * marks the point of attachment. Cbz = O=C(OCc1ccccc1)*
Tested on: L1210 leukemia ip in BDF1 mice, survival T/C
Experiment: NCI In Vivo Anticancer Drug Screen. Data for tumor model L1210 Leukemia (intraperitoneal) in B6D2F1 (BDF1) mice
Details: endpoint: mean survival time, higher = longer survival
How it was run: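 Antitumor effect is assessed in tumor-bearing animals. Survival in the compound arm is compared with a vehicle-dosed control arm and expressed as their quotient.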

[1] = dose: 100.0 mg/kg/injection, schedule: Q01DX009 (ip), vehicle: saline with Tween-80
[2] = dose: 100.0 mg/kg/injection, schedule: Q04DX003 (ip), vehicle: Klucel (hydroxypropylcellulose) (HPC)
[3] = dose: 200.0 mg/kg/injection, schedule: Q01DX009 (ip), vehicle: saline with Tween-80
[4] = dose: 200.0 mg/kg/injection, schedule: Q04DX003 (ip), vehicle: Klucel (hydroxypropylcellulose) (HPC)
[5] = dose: 400.0 mg/kg/injection, schedule: Q01DX009 (ip), vehicle: saline with Tween-80
[6] = dose: 400.0 mg/kg/injection, schedule: Q04DX003 (ip), vehicle: Klucel (hydroxypropylcellulose) (HPC)
[7] = dose: 100.0 mg/kg/injection, schedule: Q01DX009 (ip), vehicle: saline
[8] = dose: 200.0 mg/kg/injection, schedule: Q01DX009 (ip), vehicle: saline
[9] = dose: 100.0 mg/kg/injection, schedule: Q01DX001 (ip), vehicle: saline
[10] = dose: 200.0 mg/kg/injection, schedule: Q01DX001 (ip), vehicle: saline
[11] = dose: 100.0 mg/kg/injection, schedule: Q04DX002 (ip), vehicle: Klucel (hydroxypropylcellulose) (HPC)
[12] = dose: 100.0 mg/kg/injection, schedule: Q01DX009 (ip), vehicle: Klucel (hydroxypropylcellulose) (HPC)
[13] = dose: 200.0 mg/kg/injection, schedule: Q01DX009 (ip), vehicle: Klucel (hydroxypropylcellulose) (HPC)
[14] = dose: 400.0 mg/kg/injection, schedule: Q01DX009 (ip), vehicle: Klucel (hydroxypropylcellulose) (HPC)
[15] = dose: 100.0 mg/kg/injection, schedule: Q01DX001 (ip), vehicle: carboxymethylcellulose (CMC)
[16] = dose: 200.0 mg/kg/injection, schedule: Q01DX001 (ip), vehicle: carboxymethylcellulose (CMC)
[17] = dose: 400.0 mg/kg/injection, schedule: Q01DX001 (ip), vehicle: carboxymethylcellulose (CMC)

Measured: T/C

CC1(C)CCC2(C)CC=C3OC(=O)CCC3(C)C2C1 (stereo unspecified)
inactive: [1] 92 % of control | [2] 102 % of control | [3] 89 % of control | [4] 98 % of control | [5] 94 % of control | [6] 94 % of control

COc1ccc(-c2c(-c3ccccc3)oc3ccc4ccccc4c23)cc1
inactive: [1] 87 % of control | [3] 93 % of control | [5] 92 % of control

CC1(c2ccc[n+](CC(=O)c3ccccc3)c2)OCCO1
inactive: dose: 75.0 mg/kg/injection, schedule: Q01DX001 (ip), vehicle: saline 104 % of control | dose: 150.0 mg/kg/injection, schedule: Q01DX001 (ip), vehicle: saline 105 % of control

Cc1cc(O)ccc1C#N
inactive: dose: 100.0 mg/kg/injection, schedule: Q04DX002 (ip), vehicle: saline 102 % of control | dose: 200.0 mg/kg/injection, schedule: Q04DX002 (ip), vehicle: saline 102 % of control | dose: 400.0 mg/kg/injection, schedule: Q04DX002 (ip), vehicle: saline 104 % of control

CC(O)C[N+](=O)[O-] (stereo unspecified)
inactive: dose: 50.0 mg/kg/injection, schedule: Q01DX009 (ip), vehicle: saline 103 % of control | [7] 98 % of control | [8] 106 % of control

COP(=S)(N/N=C/c1ccccn1)OC
inactive: dose: 100.0 mg/kg/injection, schedule: Q04DX003 (ip), vehicle: saline with Tween-80 106 % of control | dose: 200.0 mg/kg/injection, schedule: Q04DX003 (ip), vehicle: saline with Tween-80 97 % of control | dose: 400.0 mg/kg/injection, schedule: Q04DX003 (ip), vehicle: saline with Tween-80 108 % of control

CC(C)(C)c1cc(C(=S)N2CCOCC2)cc(C(C)(C)C)c1O
inactive: dose: 100.0 mg/kg/injection, schedule: Q01DX001 (ip), vehicle: Klucel (hydroxypropylcellulose) (HPC) 103 % of control | dose: 200.0 mg/kg/injection, schedule: Q01DX001 (ip), vehicle: Klucel (hydroxypropylcellulose) (HPC) 100 % of control | dose: 400.0 mg/kg/injection, schedule: Q01DX001 (ip), vehicle: Klucel (hydroxypropylcellulose) (HPC) 86 % of control

NNC(=O)CCSc1ccccc1
inactive: dose: 12.5 mg/kg/injection, schedule: Q01DX009 (ip), vehicle: saline with Tween-80 89 % of control | dose: 25.0 mg/kg/injection, schedule: Q01DX009 (ip), vehicle: saline with Tween-80 99 % of control | dose: 50.0 mg/kg/injection, schedule: Q01DX009 (ip), vehicle: saline with Tween-80 105 % of control

CC/C(=C\c1ccccc1)[N+](=O)[O-]
inactive: dose: 25.0 mg/kg/injection, schedule: Q01DX009 (ip), vehicle: Klucel (hydroxypropylcellulose) (HPC) 102 % of control | dose: 25.0 mg/kg/injection, schedule: Q04DX003 (ip), vehicle: Klucel (hydroxypropylcellulose) (HPC) 97 % of control | dose: 50.0 mg/kg/injection, schedule: Q01DX009 (ip), vehicle: Klucel (hydroxypropylcellulose) (HPC) 98 % of control | dose: 50.0 mg/kg/injection, schedule: Q04DX003 (ip), vehicle: Klucel (hydroxypropylcellulose) (HPC) 90 % of control | [2] 103 % of control

CN(C)c1ccc(/C(=N\O)C(=O)O)cc1
inactive: dose: 50.0 mg/kg/injection, schedule: Q01DX001 (ip), vehicle: saline 107 % of control | [9] 105 % of control | [10] 100 % of control

CCNC(=S)NCC
inactive: dose: 100.0 mg/kg/injection, schedule: Q04DX003 (ip), vehicle: carboxymethylcellulose (CMC) 98 % of control | dose: 200.0 mg/kg/injection, schedule: Q04DX003 (ip), vehicle: carboxymethylcellulose (CMC) 102 % of control | dose: 400.0 mg/kg/injection, schedule: Q04DX003 (ip), vehicle: carboxymethylcellulose (CMC) 107 % of control

Cc1ncc2c(=O)n(-c3ccc(Br)cc3)[nH]c2n1
inactive: dose: 100.0 mg/kg/injection, schedule: Q04DX003 (ip), vehicle: gum acacia 96 % of control | dose: 200.0 mg/kg/injection, schedule: Q04DX003 (ip), vehicle: gum acacia 97 % of control | dose: 400.0 mg/kg/injection, schedule: Q04DX003 (ip), vehicle: gum acacia 92 % of control

CC(=O)OC1COC(SC(C)=O)C(OC(C)=O)C1OC(C)=O (stereo unspecified)
inactive: dose: 100.0 mg/kg/injection, schedule: Q01DX001 (ip), vehicle: other 95 % of control | dose: 200.0 mg/kg/injection, schedule: Q01DX001 (ip), vehicle: other 104 % of control | dose: 400.0 mg/kg/injection, schedule: Q01DX001 (ip), vehicle: other 95 % of control

CC(=O)N1Cc2cccn2Cc2cc3c(cc21)OCO3
inactive: dose: 25.0 mg/kg/injection, schedule: Q04DX002 (ip), vehicle: Klucel (hydroxypropylcellulose) (HPC) 97 % of control | dose: 50.0 mg/kg/injection, schedule: Q04DX002 (ip), vehicle: Klucel (hydroxypropylcellulose) (HPC) 87 % of control | [11] 97 % of control

CC(C)N(C(=O)Nc1cccc(F)c1)c1ccccc1
inactive: dose: 100.0 mg/kg/injection, schedule: Q01DX009 (ip), vehicle: gum acacia 96 % of control | dose: 200.0 mg/kg/injection, schedule: Q01DX009 (ip), vehicle: gum acacia 96 % of control | dose: 400.0 mg/kg/injection, schedule: Q01DX009 (ip), vehicle: gum acacia 90 % of control

NS(=O)(=O)c1ccc(NC(=O)Nc2ccc(Cl)cc2[N+](=O)[O-])cc1
inactive: [12] 94 % of control | [13] 91 % of control | [14] 86 % of control

O=C(COc1ccc(Cl)c(Cl)c1)NCc1ccc[n+](CC(=O)Nc2ccc(S(=O)(=O)F)cc2)c1
inactive: [7] 100 % of control | [8] 94 % of control

CCOC(=O)CCC(NC(=O)C(CCC(=O)O)NC(=O)OCc1ccccc1)C(=O)OCC (stereo not drawn) (Cbz-Glu-Glu(OEt)-OEt; configuration not given here)
inactive: [2] 94 % of control | [4] 101 % of control | [6] 96 % of control

CCN(CC)C1=C(Cl)C(=O)C(N(CC)CC)=C(Cl)C1=O
inactive: dose: 25.0 mg/kg/injection, schedule: Q04DX002 (ip), vehicle: gum acacia 95 % of control | dose: 50.0 mg/kg/injection, schedule: Q04DX002 (ip), vehicle: gum acacia 95 % of control

O=C(O)/C(F)=C/c1ccccc1
inactive: dose: 50.0 mg/kg/injection, schedule: Q01DX001 (ip), vehicle: carboxymethylcellulose (CMC) 111 % of control | [15] 103 % of control

Clc1ccc(C2=Nc3cccc4cccc(c34)N2)cc1Cl
inactive: dose: 15.0 mg/kg/injection, schedule: Q01DX Z (ip), vehicle: saline 97 % of control | dose: 30.0 mg/kg/injection, schedule: Q01DX Z (ip), vehicle: saline 105 % of control | dose: 60.0 mg/kg/injection, schedule: Q01DX Z (ip), vehicle: saline 100 % of control | dose: 60.0 mg/kg/injection, schedule: Q01DX Z (oral), vehicle: saline 91 % of control | dose: 120.0 mg/kg/injection, schedule: Q01DX Z (oral), vehicle: saline 96 % of control | dose: 240.0 mg/kg/injection, schedule: Q01DX Z (oral), vehicle: saline 94 % of control | dose: 480.0 mg/kg/injection, schedule: Q01DX Z (oral), vehicle: saline 98 % of control

CCC[Si](C)(C)C
inactive: [15] 94 % of control | [16] 96 % of control | [17] 89 % of control

CCC(C)C(=NC)Nc1ccc(Cl)c(Cl)c1 (stereo unspecified)
inactive: dose: 111.0 mg/kg/injection, schedule: Q01DX Z (ip), vehicle: methylcellulose (MC) 91 % of control

Cc1ccc(S(=O)(=O)CCN2CCc3ccccc3C2)cc1
inactive: [9] 103 % of control | [10] 100 % of control | dose: 400.0 mg/kg/injection, schedule: Q01DX001 (ip), vehicle: saline 97 % of control

NC(=O)N/N=C/Cc1ccc2c(c1)OCO2
inactive: [15] 97 % of control | [16] 87 % of control | [17] 92 % of control

NC(=O)NNC(=O)c1ccccc1
inactive: [12] 100 % of control | [2] 96 % of control | [13] 104 % of control | [4] 94 % of control | [14] 98 % of control | [6] 100 % of control

Cc1cccc(OCC(O)CN(Cc2ccsc2)c2ccccn2)c1 (stereo unspecified)
inactive: [11] 94 % of control | dose: 200.0 mg/kg/injection, schedule: Q04DX002 (ip), vehicle: Klucel (hydroxypropylcellulose) (HPC) 106 % of control

From PubChem BioAssay AID248 (DTP/NCI, 2004)
